Results on ten molecules are retold here after PMC3584441 (The Journal of membrane biology, 2013).

Where no end group is shown, it is not given here.

The subject of this data set is sheep erythrocytes. In words: Hemolysis assay: decrease in absorbance. The format is cell-based. The conditions noted are these: grouped as hemolytic (yes) or non-hemolytic (no).
Consider GILKFLESAKKWLEAFLAEIMNS [MG-1], for which the Hemolytic result is “yes”.

On to `CC(C)C[C@H](NC=O)C(=O)N[C@@H](C)C(=O)N[C@@H](C)C(=O)N[C@@H](CC(=O)O)C(=O)N[C@@H](CC(C)C)C(=O)N[C@@H](CC(C)C)C(=O)N[C@@H](C)C(=O)N[C@@H](C)C(=O)N[C@@H](CC(C)C)C(=O)NCC(=O)N[C@@H](CC(=O)O)C(=O)N[C@@H](CC(C)C)C(=O)N[C@@H](C)C(=O)N[C@@H](CCCCN)C(=O)N[C@@H](Cc1c[nH]c2ccccc12)C(=O)N[C@@H](CC(C)C)C(=O)N[C@@H](CC(C)C)C(=O)N[C@@H](CC(=O)O)C(=O)N[C@@H](C)C(=O)N[C@@H](CC(C)C)C(=O)N[C@@H](C)C(=O)N[C@@H](CCCCN)C(=O)N[C@@H](C)C(=O)N[C@@H](C)C(=O)N[C@@H](CCCCN)C(=O)N[C@@H](CCCCN)C(=O)O` (racemic) [DL-2a], for which the Hemolytic result is given as “yes”.

As for `CC[C@H](C)[C@H](NC(=O)[C@H](Cc1c[nH]c2ccccc12)NC(=O)[C@H](CCCCN)NC(=O)[C@@H](NC(=O)[C@H](CC(C)C)NC(=O)[C@H](CCCCN)NC(=O)CNC(=O)[C@@H](NC(=O)[C@@H](NC(=O)[C@H](CO)NC(=O)[C@@H](NC(=O)[C@@H](NC(=O)[C@H](CCCCN)NC(=O)[C@H](CCC(N)=O)NC(=O)[C@H](C)NC(=O)[C@H](CCSC)NC=O)[C@@H](C)CC)[C@@H](C)CC)[C@@H](C)O)[C@@H](C)CC)C(C)C)C(=O)N[C@H](C(=O)N[C@@H](CCCCN)C(=O)N[C@H](C(=O)N[C@H](C(=O)N[C@@H](CC(N)=O)C(=O)N[C@@H](CCCCN)C(=O)N[C@@H](Cc1ccccc1)C(=O)N[C@H](C(=O)N[C@@H](CCCCN)C(=O)N[C@@H](CCCCN)C(=O)O)[C@@H](C)O)C(C)C)[C@@H](C)O)[C@@H](C)CC` (racemic) [DL-1], the Hemolytic entry is “yes”.

Consider `CC[C@H](C)[C@H](NC(=O)[C@H](Cc1c[nH]c2ccccc12)NC(=O)[C@H](CCCCN)NC(=O)[C@@H](NC(=O)[C@H](CC(C)C)NC(=O)[C@H](CC(=O)O)NC(=O)CNC(=O)[C@@H](NC(=O)[C@@H](NC(=O)[C@H](CO)NC(=O)[C@@H](NC(=O)[C@@H](NC(=O)[C@H](CC(=O)O)NC(=O)[C@H](CCC(N)=O)NC(=O)[C@H](C)NC(=O)[C@H](CCSC)NC=O)[C@@H](C)CC)[C@@H](C)CC)[C@@H](C)O)[C@@H](C)CC)C(C)C)C(=O)N[C@H](C(=O)N[C@@H](CC(=O)O)C(=O)N[C@H](C(=O)N[C@H](C(=O)N[C@@H](CC(N)=O)C(=O)N[C@@H](CCCCN)C(=O)N[C@@H](Cc1ccccc1)C(=O)N[C@H](C(=O)N[C@@H](CCCCN)C(=O)N[C@@H](CCCCN)C(=O)O)[C@@H](C)O)C(C)C)[C@@H](C)O)[C@@H](C)CC` [δ-Lysin, reference compound], for which the Hemolytic entry is on record as “yes”.

For GLGKLLHAAKKLGKAWLGELLAA [MG-2], the Hemolytic entry was “yes”.

AGWLLGDINLKALAALAKKIL-NH2 [TPW-3]: the Hemolytic result is “yes”.

As for `CC[C@H](C)[C@H](NC(=O)[C@H](CCCCN)NC(=O)[C@H](CCCCN)NC(=O)[C@H](C)NC(=O)[C@H](CC(C)C)NC(=O)[C@H](C)NC(=O)[C@H](C)NC(=O)[C@H](CC(C)C)NC(=O)[C@H](C)NC(=O)[C@H](CCCCN)NC(=O)[C@H](CC(C)C)NC(=O)[C@H](CC(N)=O)NC(=O)[C@@H](NC(=O)[C@H](CCCCN)NC(=O)CNC(=O)[C@H](CC(C)C)NC(=O)[C@H](CC(C)C)NC(=O)[C@H](Cc1c[nH]c2ccccc12)NC(=O)CNC(=O)[C@H](C)N)[C@@H](C)CC)C(=O)N[C@@H](CC(C)C)C(N)=O` [TP10W], the Hemolytic result was “yes”.

Regarding AGWLLGDINLDALAALAKKIL-NH2 [TPW-1], the Hemolytic result is listed as “yes”.

For AGWLLGKLALKALAALAKKLL-NH2 [TPW-2], the Hemolytic result is listed as “yes”.

On to “KWKLLKKLEKAGAALKEGLLKAGPALALLGAAAALAK-NH2 [CE-2]”, for which the Hemolytic entry is “yes”.
